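All cell lines were grown in 96-well plates and treated with compound for 48 hours. GI50 is the concentration that inhibits growth by half.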 Calls of active or inactive are those of the source. Rule as the data show it: active = GI50 up to about 1.1 µM and inactive = higher.
Assays:
Experiment in all cases: NCI tumour cell line growth inhibition, 48 h
[1] = tested on: Malme-3M
[2] = tested on: HOP-62
[3] = tested on: MCF7
[4] = tested on: NCI-H522
[5] = tested on: HOP-92
[6] = tested on: OVCAR-4
[7] = tested on: K562
[8] = tested on: LOX IMVI
[9] = tested on: BT-549
[10] = tested on: EKVX
[11] = tested on: SNB-19
[12] = tested on: SF-295
[13] = tested on: HCT-116
[14] = tested on: KM12
[15] = tested on: NCI-H460
[16] = tested on: 786-0
[17] = tested on: PC-3
[18] = tested on: NCI/ADR-RES
[19] = tested on: A498
[20] = tested on: SK-MEL-2

Structure (SMILES)	GI50 [1]	GI50 [2]	GI50 [3]	GI50 [4]	GI50 [5]	GI50 [6]	GI50 [7]	GI50 [8]	GI50 [9]	GI50 [10]	GI50 [11]	GI50 [12]	GI50 [13]	GI50 [14]	GI50 [15]	GI50 [16]	GI50 [17]	GI50 [18]	GI50 [19]	GI50 [20]
COc1ccc(C2=Nn3c(nnc3-c3ccccc3)S/C2=C\c2ccc(-c3ccc([N+](=O)[O-])cc3)o2)cc1	34.8 µM (inactive)	52.4 µM (inactive)	15.1 µM (inactive)	12.8 µM (inactive)	54.8 µM (inactive)	30 µM (inactive)	13.3 µM (inactive)	25 µM (inactive)	26.2 µM (inactive)	50.9 µM (inactive)	33.3 µM (inactive)	26.5 µM (inactive)	29.6 µM (inactive)	23.2 µM (inactive)	27.4 µM (inactive)	24.9 µM (inactive)	27.3 µM (inactive)	25.2 µM (inactive)	58.6 µM (inactive)	15.8 µM (inactive)
CCCCCC(=O)Nc1[nH]cnc1C(N)=O	> 100 µM (inactive)	> 100 µM (inactive)	> 100 µM (inactive)	> 100 µM (inactive)	71.3 µM (inactive)	> 100 µM (inactive)	> 100 µM (inactive)	> 100 µM (inactive)	> 100 µM (inactive)	> 100 µM (inactive)	> 100 µM (inactive)	> 100 µM (inactive)	> 100 µM (inactive)	> 100 µM (inactive)	> 100 µM (inactive)	> 100 µM (inactive)	> 100 µM (inactive)	> 100 µM (inactive)	> 100 µM (inactive)	> 100 µM (inactive)
CN(C)CCCN1C(=S)N(CCCN(C)C)c2c3cc(O)ccc3nc3c([N+](=O)[O-])ccc1c23	6.7 µM (inactive)	2.61 µM (inactive)	0.902 µM (active)	1.32 µM (inactive)	2.38 µM (inactive)	2.61 µM (inactive)	2.14 µM (inactive)	1.26 µM (inactive)	11.7 µM (inactive)	4.08 µM (inactive)	2.06 µM (inactive)	3.37 µM (inactive)	1 µM (active)	2.7 µM (inactive)	0.34 µM (active)	1.07 µM (active)	2.05 µM (inactive)	6.07 µM (inactive)	0.839 µM (active)	6.47 µM (inactive)
O=C(O)C1OC1(c1cccc(Cl)c1)c1ccccc1Cl (stereo not given)	19.7 µM (inactive)	23.9 µM (inactive)	29.4 µM (inactive)	24.5 µM (inactive)	23.1 µM (inactive)	23.5 µM (inactive)	16.7 µM (inactive)	18 µM (inactive)	18.8 µM (inactive)	25.4 µM (inactive)	33.9 µM (inactive)	25.7 µM (inactive)	19 µM (inactive)	29.6 µM (inactive)	42.7 µM (inactive)	43.1 µM (inactive)	21.8 µM (inactive)	18.1 µM (inactive)	79.1 µM (inactive)	15.7 µM (inactive)
O=C1NCN(c2ccccc2)C12CCN(CCCN1CCN(CCOC(c3ccccc3)c3ccccc3)CC1)CC2	2.23 µM (inactive)	3.25 µM (inactive)	3.11 µM (inactive)	1.73 µM (inactive)	1.93 µM (inactive)	3.53 µM (inactive)	0.447 µM (active)	3.01 µM (inactive)	3.92 µM (inactive)	3.68 µM (inactive)	3.94 µM (inactive)	2.69 µM (inactive)	2.33 µM (inactive)	2.87 µM (inactive)	3.84 µM (inactive)	0.753 µM (active)	3.99 µM (inactive)	4.54 µM (inactive)	3.36 µM (inactive)	3.11 µM (inactive)
Cn1c(=O)c2c(nc3n2CC(C(=O)O)N3)n(C)c1=O (stereo not given)	> 100 µM (inactive)	> 100 µM (inactive)	> 100 µM (inactive)	> 100 µM (inactive)	> 100 µM (inactive)	> 100 µM (inactive)	9.1 µM (inactive)	> 100 µM (inactive)	> 100 µM (inactive)	> 100 µM (inactive)	> 100 µM (inactive)	> 100 µM (inactive)	> 100 µM (inactive)	> 100 µM (inactive)	> 100 µM (inactive)	> 100 µM (inactive)	> 100 µM (inactive)	> 100 µM (inactive)	> 100 µM (inactive)	> 100 µM (inactive)
COc1ccc2cc(CNCCOCCOCCNCc3ccc4cc(OC)ccc4c3)ccc2c1	1.43 µM (inactive)	1.69 µM (inactive)	0.887 µM (active)	1.54 µM (inactive)	0.593 µM (active)	1.92 µM (inactive)	0.118 µM (active)	0.467 µM (active)	1.89 µM (inactive)	1.57 µM (inactive)	1.49 µM (inactive)	1.17 µM (inactive)	1.23 µM (inactive)	0.881 µM (active)	0.655 µM (active)	0.953 µM (active)	1.54 µM (inactive)	1.48 µM (inactive)	1.68 µM (inactive)	1.53 µM (inactive)
CC(=O)Nc1ccc(-c2nc3ccccc3s2)cc1Br	> 62.1 µM (inactive)	7.53 µM (inactive)	0.141 µM (active)	> 72.3 µM (inactive)	46 µM (inactive)	> 38.7 µM (inactive)	> 100 µM (inactive)	71.1 µM (inactive)	29.1 µM (inactive)	10.5 µM (inactive)	37.5 µM (inactive)	30.8 µM (inactive)	20.5 µM (inactive)	> 100 µM (inactive)	> 92.5 µM (inactive)	35.6 µM (inactive)	> 100 µM (inactive)	73.3 µM (inactive)	4.54 µM (inactive)	> 100 µM (inactive)
O=C(Oc1cccnc1)c1cc2cc(CCl)ccc2oc1=O	22.7 µM (inactive)	76.2 µM (inactive)	3.15 µM (inactive)	17 µM (inactive)	20.6 µM (inactive)	24.3 µM (inactive)	19.5 µM (inactive)	21 µM (inactive)	24.8 µM (inactive)	21.5 µM (inactive)	61.9 µM (inactive)	> 100 µM (inactive)	17.7 µM (inactive)	31.6 µM (inactive)	31 µM (inactive)	18.5 µM (inactive)	17.3 µM (inactive)	29.5 µM (inactive)	48.5 µM (inactive)	21.7 µM (inactive)
Fc1ccc(OCc2nc3cc(C(F)(F)F)ccc3nc2-c2ccccc2)cc1	> 58.9 µM (inactive)	> 100 µM (inactive)	67.8 µM (inactive)	28.4 µM (inactive)	> 45.3 µM (inactive)	92 µM (inactive)	3.06 µM (inactive)	> 100 µM (inactive)	> 46.1 µM (inactive)	> 86.9 µM (inactive)	> 83 µM (inactive)	> 100 µM (inactive)	99.5 µM (inactive)	> 100 µM (inactive)	> 100 µM (inactive)	> 100 µM (inactive)	> 100 µM (inactive)	98.2 µM (inactive)	> 100 µM (inactive)	> 100 µM (inactive)
NCCSc1nc(-c2ccccc2)c(-c2ccccc2)o1	> 100 µM (inactive)	> 100 µM (inactive)	> 100 µM (inactive)	29.6 µM (inactive)	> 100 µM (inactive)	46.7 µM (inactive)	> 100 µM (inactive)	> 100 µM (inactive)	> 100 µM (inactive)	> 100 µM (inactive)	> 100 µM (inactive)	> 100 µM (inactive)	37.1 µM (inactive)	> 100 µM (inactive)	65.9 µM (inactive)	32.1 µM (inactive)	> 100 µM (inactive)	> 100 µM (inactive)	> 100 µM (inactive)	> 100 µM (inactive)
COC1C(O)=C2C(=O)OC(C)(O)/C=C/C=C\C=C/C=C/C(c3ccccc3)NC(=O)/C=C/C=C/C=C/C=C/C2(C)C1O (stereo not given)	0.0101 µM (active)	0.0121 µM (active)	0.001 µM (active)	< 0.001 µM (active)	0.00146 µM (active)	0.0678 µM (active)	0.248 µM (active)	0.00838 µM (active)	0.0128 µM (active)	0.0118 µM (active)	0.0258 µM (active)	0.0111 µM (active)	0.00403 µM (active)	0.00679 µM (active)	< 0.001 µM (active)	0.00787 µM (active)	0.00339 µM (active)	0.00861 µM (active)	0.0137 µM (active)	0.0361 µM (active)
O=C(O)C(Cc1c[nH]c2ccccc12)C(=O)NO (stereo not given)	> 100 µM (inactive)	> 100 µM (inactive)	> 100 µM (inactive)	> 100 µM (inactive)	> 100 µM (inactive)	> 100 µM (inactive)	> 100 µM (inactive)	> 100 µM (inactive)	> 100 µM (inactive)	14.2 µM (inactive)	> 100 µM (inactive)	> 100 µM (inactive)	> 100 µM (inactive)	> 100 µM (inactive)	> 100 µM (inactive)	> 100 µM (inactive)	64.1 µM (inactive)	> 100 µM (inactive)	> 100 µM (inactive)	> 100 µM (inactive)
COCC1OCCN1C (stereo not given)	> 100 µM (inactive)	> 100 µM (inactive)	> 100 µM (inactive)	> 100 µM (inactive)	> 100 µM (inactive)	> 100 µM (inactive)	> 100 µM (inactive)	> 100 µM (inactive)	> 100 µM (inactive)	> 100 µM (inactive)	> 100 µM (inactive)	> 100 µM (inactive)	> 100 µM (inactive)	88.3 µM (inactive)	> 100 µM (inactive)	> 100 µM (inactive)	> 100 µM (inactive)	> 100 µM (inactive)	> 100 µM (inactive)	> 100 µM (inactive)

From ChEMBL document CHEMBL1201862, “PubChem BioAssay data set” (2004)
